Experimental data taken from US6455561B1, “Heterocyclic compounds and their therapeutic use” (Darwin Discovery, Ltd., priority 2000, dated 2002).

Tested on: eosinophilia
Test: Guinea pig lung model (inhibition of eosinophilia)
Format: in vivo
Conditions: dosed at 3 mg/kg
Method: Activity in a guinea pig lung model is measured using the procedures described by Mauser et al, Am. Rev. Respir. Dis. 148:1623 (1993), and Am. J. Respir. Crit. Care Med. 152:467 (1995).

For COCc1cc2c(C(=O)Nc3c(C)noc3C)ccc(OC)c2o1 [Example 10, 7-Methoxy-2-methoxymethylbenzofuran-4-carboxylic Acid (3,5-dimethylisoxazol-4-yl)-amide], the inhibition of eosinophilia was 35%.
